Test results reported in ChEMBL document CHEMBL4825753 (J Med Chem, 2021).
The source made the active and inactive calls. The rule behind the calls is not given here.

Experiments:
[1] = Photostability of compound assessed as half life; format: physicochemical
BaF3 [2] = assay: Growth inhibition of mouse BaF3 cells assessed as inhibition of cell growth incubated for 72 hrs by Cell-titer-Glo assay; format: functional
BaF3 [3] = assay: Antitumour activity against mouse BaF3 cells transfected with MER implanted in C57BL/6J mouse assessed as reduction in tumour growth at 100 mg/kg, po bid for 6 days; format: functional, organism-based; settings: time 6.0 day
BaF3 [4] = assay: Antitumour activity against mouse BaF3 cells transfected with AXL implanted in C57BL/6J mouse assessed as reduction in tumour growth at 3 to 100 mg/kg, po bid for 6 days; format: functional, organism-based; settings: dose 3-100 mg/kg, time 6.0 day
MC-38 = assay: Antitumour activity against mouse MC38 cells implanted in C57BL6 mouse assessed as increase in survival at 100 mg/kg, po bid for 2 weeks co-treatment with anti-PD1 further treated with ionizing radiation; format: functional, organism-based
[5] = Fraction unbound in C57BL/6J mouse implanted with mouse BaF3 cells transfected with AXL in at 3 to 100 mg/kg, po bid for 6 days; format: ADME, organism-based; settings: in vivo, dose 3-100 mg/kg, time 6 day
[6] = Fraction unbound in C57BL/6J mouse implanted with mouse BaF3 cells transfected with MER in at 3 to 100 mg/kg, po bid for 6 days; format: ADME, organism-based; settings: in vivo, dose 3-100 mg/kg, time 6 day
BaF3 [7] = assay: Growth inhibition of mouse BaF3 cells transfected with AXL assessed as inhibition of cell growth incubated for 72 hrs by Cell-titer-Glo assay; format: functional
BaF3 [8] = assay: Growth inhibition of mouse BaF3 cells transfected with FLT3 assessed as inhibition of cell growth incubated for 72 hrs by Cell-titer-Glo assay; format: functional
BaF3 [9] = assay: Growth inhibition of mouse BaF3 cells transfected with MER assessed as inhibition of cell growth incubated for 72 hrs by Cell-titer-Glo assay; format: functional
BaF3 [10] = assay: Growth inhibition of mouse BaF3 cells transfected with Tyro3 assessed as inhibition of cell growth incubated for 72 hrs by Cell-titer-Glo assay; format: functional
BaF3 [11] = assay: Antitumour activity against mouse BaF3 cells transfected with AXL implanted in C57BL/6J mouse assessed as reduction in AXL phosphorylation at 30 to 100 mg/kg, po bid for 6 days western blot analysis; format: functional, organism-based; settings: dose 30-100 mg/kg, time 6.0 day

| half-life [1] | GI50 (BaF3 [2]) | fraction unbound at 144 h [5] | fraction unbound at 144 h [6] | GI50 (BaF3 [7]) | GI50 (BaF3 [8]) | GI50 (BaF3 [9]) | GI50 (BaF3 [10]) | SMILES | Activity (BaF3 [3]) | Activity (BaF3 [4]) | Activity (MC-38) | Activity (BaF3 [11]) |
| --- | --- | --- | --- | --- | --- | --- | --- | --- | --- | --- | --- | --- |
| 69 h | – | – | – | – | – | – | – | Cc1cc(-c2c(C)nn(C)c2C)ccc1-c1nnc(N(C)Cc2ccc3nccn3c2)o1 | – | – | – | – |
| – | 3.98 µM | 0.076 | 0.076 | 0.1 µM | 3.16 µM | 0.0251 µM | 5.01 µM | Cc1cc(-c2c(C)nn(C)c2C)cnc1-c1nnc(N(C)Cc2ccc3ncc(-c4ccc(CN(C)C)cc4)n3c2)o1 | Active | Active | Active | Active |
